Experiment [1] has as its system Env-deleted NL4-3 vector virus pseudotyped with the VSV g envelope. Kind of experiment: microbe, parasite or virus in culture. Type of experiment: cell-based, HIV-1. The following applies: Vesicular stomatitis virus, NL43, SUP-T1, 48 h, read-out: EC50 for antiviral activity (50% inhibition of luciferase activity).
The next experiment deals with NL4-3 strain of HIV-1. The experiment is described as follows: Multiple cycle infection assay of CAp24 antigen production. Type of experiment: cell-based. The note with it: Human immunodeficiency virus 1, NL43, SUP-T1, 96 h, read-out: EC50 for antiviral activity (50% inhibition of CA p24 production).
Where [2] appears, read: multiple cycle infection with NL4-3 virus, SupT1, MT4 or PBMC, MOI 0.01, day 4 and day −6 post-infection, threshold below 5 μM.

The term EC50 denotes the concentration at which the effect is half-maximal.

Where two headings read alike, the source gives them in different places. A value given as a limit tells only on which side of the number the result lay.

Regarding `COc1ccccc1CN(C)C(=O)CCCC(=O)c1ccc(F)cc1` [Example 56, 5-(4-Fluorophenyl)-N-(2-methoxybenzyl)-N-methyl-5-oxopentanamide], the EC50 (in experiment [1]; in the experiment with NL4-3 strain of HIV-1 (setting [2])) was below 5 µM each time.

On to `COc1ccccc1CN(C)C(=O)CCCSc1ccc(F)c(Cl)c1` [Example 141, 4-[(3-Chloro-4-fluorophenyl)thio]-N-(2-methoxybenzyl)-N-methylbutanamide], for which the EC50 (in experiment [1]; in the experiment on NL4-3 strain of HIV-1 (setting [2])) was below 5 µM throughout.

Regarding `COc1ccc2c(ccn2CCCC(=O)N(C)Cc2cc(F)ccc2OC)c1` [Example 109, N-(5-fluoro-2-methoxybenzyl)-4-(5-methoxy-1H-indol-1-yl)-N-methylbutanamide], the half-maximal effective concentration (EC50) (in experiment [1]; in the experiment on NL4-3 strain of HIV-1 (setting [2])) was below 5 µM each time.

With `COc1ccc(Br)cc1CN(C)C(=O)CCCSc1ccc(F)cc1` [Example 92, N-(5-Bromo-2-methoxybenzyl)-4-[(4-fluorophenyl)thio]-N-methylbutanamide], the concentration for a half-maximal effect (EC50) (in experiment [1]; in the experiment on NL4-3 strain of HIV-1 (setting [2])) was below 5 µM in each case.

Consider `CN(Cc1ccccc1C1=CCNCC1)C(=O)CCCSc1ccc(O)cc1` [Example 168, 4-[(4-Hydroxyphenyl)thio]-N-methyl-N-[2-(1,2,3,6-tetrahydropyridin-4-yl)benzyl]butanamide], for which the EC50 (in experiment [1]; in the experiment on NL4-3 strain of HIV-1) was below 5 µM each time.

In the case of `C=CCOc1ccccc1CN(C)C(=O)CCCSc1ccc(F)cc1` [Example 90, N-[2-(Allyloxy)benzyl]-4-[(4-fluorophenyl)thio]-N-methylbutanamide], the EC50 (in experiment [1]; with NL4-3 strain of HIV-1 (setting [2])) was below 5 µM throughout.

`COc1ccc(F)cc1CN(C)C(=O)CCCSc1ccc(CO)cc1` [Example 148, N-(5-fluoro-2-methoxybenzyl)-4-{[4-(hydroxymethyl)phenyl]thio}-N-methylbutanamide]: the EC50 (in experiment [1]; with NL4-3 strain of HIV-1 (setting [2])) was below 5 µM each time.

As for `CN(C(=O)CCCSc1ccc(F)cc1)c1cccc2cnccc12` [Example 131, 4-[(4-fluorophenyl)thio]-N-isoquinolin-5-yl-N-methylbutanamide], the concentration for a half-maximal effect (EC50) (in experiment [1]; in the experiment with NL4-3 strain of HIV-1 (setting [2])) was below 5 µM throughout.

Consider `COc1ccc(F)cc1CN(C)C(=O)CCCSc1ccc(Cl)cc1` [Example 112, 4-[(4-chlorophenyl)thio]-N-(5-fluoro-2-methoxybenzyl)-N-methylbutanamide], for which the EC50 (in experiment [1]; with NL4-3 strain of HIV-1 (setting [2])) was below 5 µM throughout.

In the case of `CN1CCN(c2ccccc2CN(C)C(=O)CCCSc2ccc(O)cc2)CC1` [Example 13, 4-[(4-Hydroxyphenyl)thio]-N-methyl-N-[2-(4-methylpiperazin-1-yl)benzyl]-butanamide], the EC50 (in experiment [1]; in the experiment with NL4-3 strain of HIV-1 (setting [2])) was below 5 µM each time.

In the case of `Cc1ccccc1CN(C)C(=O)CCCSc1ccc(O)cc1` [Example 37, 4-[(4-Hydroxyphenyl)thio]-N-methyl-N-(2-methylbenzyl)butanamide], the EC50 (in experiment [1]; in the experiment on NL4-3 strain of HIV-1 (setting [2])) was below 5 µM throughout.

Consider `CCOc1ccccc1CN(C)C(=O)CCCSc1ccc(O)cc1` [Example 30, N-(2-ethoxybenzyl)-4-[(4-hydroxyphenyl)thio]-N-methylbutanamide], for which the 50% effective concentration (EC50) (in experiment [1]; in the experiment on NL4-3 strain of HIV-1 (setting [2])) was below 5 µM each time.

Consider `C=CCOc1ccc(Cl)cc1CN(C)C(=O)CCCSc1ccc(F)cc1` [Example 101, N-[2-(allyloxy)-5-chlorobenzyl]-4-[(4-fluorophenyl)thio]-N-methylbutanamide], for which the concentration for a half-maximal effect (EC50) (in experiment [1]; with NL4-3 strain of HIV-1 (setting [2])) was below 5 µM each time.

Consider `CN(Cc1ccccc1N1CCN(c2ccc(C(F)(F)F)cn2)CC1)C(=O)CCCNCc1ccc(F)cc1` [Example 80, 4-[(4-Fluorophenyl)methylamino]-N-methyl-N-(2-{4-[5-(trifluoromethyl)pyridin-2-yl]piperazin-1-yl}benzyl)butanamide], for which the EC50 (in experiment [1]; in the experiment with NL4-3 strain of HIV-1 (setting [2])) was below 5 µM each time.

`COc1ccc(SCCCC(=O)N(C)Cc2cc(F)ccc2OC)cc1` [Example 87, N-(5-Fluoro-2-methoxybenzyl)-4-[(4-methoxyphenyl)thio]-N-methylbutanamide]: the concentration giving a half-maximal response (EC50) (in experiment [1]; in the experiment on NL4-3 strain of HIV-1 (setting [2])) was below 5 µM throughout.

Take `CN(C(=O)CCCSc1ccc(O)cc1)C(c1ccccc1)c1ccccc1` [Example 10, N-Benzhydryl-4-[(4-hydroxyphenyl)thio]-N-methylbutanamide]: the EC50 (in experiment [1]; in the experiment on NL4-3 strain of HIV-1 (setting [2])) was below 5 µM each time.

With `CN(Cc1ccccc1OC(F)(F)F)C(=O)CCCSc1ccc(O)cc1` [Example 27, 4-[(4-hydroxyphenyl)thio]-N-methyl-N-[2-(trifluoromethoxy)benzyl]butanamide], the concentration giving a half-maximal response (EC50) (in experiment [1]; in the experiment on NL4-3 strain of HIV-1 (setting [2])) was below 5 µM throughout.

Turning to `COc1cc(C)ccc1CN(C)C(=O)CCCSc1ccc(O)cc1` [Example 75, 4-[(4-Hydroxyphenyl)thio]-N-(2-methoxy-4-methylbenzyl)-N-methylbutanamide], the 50% effective concentration (EC50) (in experiment [1]; with NL4-3 strain of HIV-1 (setting [2])) was below 5 µM in each case.

`COc1ccc(F)cc1CN(C)C(=O)CCCSc1ccc(C)cc1` [Example 111, N-(5-fluoro-2-methoxybenzyl)-N-methyl-4-[(4-methylphenyl)thio]butanamide]: the EC50 (in experiment [1]; in the experiment with NL4-3 strain of HIV-1 (setting [2])) was below 5 µM each time.

For the compound `COc1ccccc1CN(C)C(=O)CCCCSc1ccc(O)cc1` [Example 12, 5-[(4-Hydroxyphenyl)thio]-N-(2-methoxybenzyl)-N-methylpentanamide], the EC50 (in experiment [1]; in the experiment on NL4-3 strain of HIV-1 (setting [2])) was below 5 µM in each case.

`COc1ccc(SCCCC(=O)N(C)Cc2cc(Cl)ccc2OC)cc1` [Example 115, N-(5-chloro-2-methoxybenzyl)-4-[(4-methoxyphenyl)thio]-N-methylbutanamide]: the EC50 (in experiment [1]; with NL4-3 strain of HIV-1 (setting [2])) was below 5 µM each time.

Consider `COc1ccc(SCCCC(=O)N(C)Cc2cc(C)ccc2N2CCOCC2)cc1` [Example 124, 4-[(4-methoxyphenyl)thio]-N-[5-methyl-2-(morpholin-4-yl)benzyl]-N-methylbutanamide], for which the EC50 (in experiment [1]; in the experiment with NL4-3 strain of HIV-1 (setting [2])) was below 5 µM throughout.

Take `CC(C)Oc1ccccc1CN(C)C(=O)CCCSc1ccc(O)cc1` [Example 41, 4-[(4-Hydroxyphenyl)thio]-N-(2-isopropoxybenzyl)-N-methylbutanamide]: the EC50 (in experiment [1]; in the experiment on NL4-3 strain of HIV-1 (setting [2])) was below 5 µM throughout.

As for `COc1ccccc1CN(C)C(=O)CCCSc1ccc(NC(C)=O)cc1` [Example 20, 4-{[4-(Acetylamino)phenyl]thio}-N-(2-methoxybenzyl)-N-methylbutanamide], the EC50 (in experiment [1]; with NL4-3 strain of HIV-1 (setting [2])) was below 5 µM throughout.

On to `CN(Cc1ccccc1Cl)C(=O)CCCSc1ccc(O)cc1` [Example 3, N-(2-Chlorobenzyl)-4-[(4-hydroxyphenyl)thio]-N-methylbutanamide], for which the concentration giving a half-maximal response (EC50) (in experiment [1]; in the experiment on NL4-3 strain of HIV-1 (setting [2])) was below 5 µM in each case.

Consider `CC(C)Oc1ccccc1CN(C)C(=O)CCCCc1ccc(O)cc1` [Example 59, 5-(4-Hydroxyphenyl)-N-(2-isopropoxybenzyl)-N-methylpentanamide], for which the EC50 (in experiment [1]; with NL4-3 strain of HIV-1 (setting [2])) was below 5 µM each time.

Regarding `CN(Cc1ccccc1-c1ccco1)C(=O)CCCn1ccc2cc(F)ccc21` [Example 122, 4-(5-fluoro-1H-indol-1-yl)-N-(2-(furan-2-yl)benzyl)-N-methylbutanamide], the half-maximal effective concentration (EC50) (in experiment [1]; with NL4-3 strain of HIV-1 (setting [2])) was below 5 µM each time.

Consider `COc1ccccc1CN(C)C(=O)CCCSc1ccc2ccccc2n1` [Example 39, N-(2-Methoxybenzyl)-N-methyl-4-(quinolin-2-ylthio)butanamide], for which the EC50 (in experiment [1]; in the experiment with NL4-3 strain of HIV-1 (setting [2])) was below 5 µM in each case.

`CN(Cc1ccccc1N1CCN(CCO)CC1)C(=O)CCCSc1ccc(O)cc1` [Example 73, N-{2-[4-(2-hydroxyethyl)piperazin-1-yl]benzyl}-4-[(4-hydroxyphenyl)thio]-N-methylbutanamide]: the concentration for a half-maximal effect (EC50) (in experiment [1]; with NL4-3 strain of HIV-1 (setting [2])) was below 5 µM throughout.

On to `CN(Cc1ccccc1N1CCOCC1)C(=O)CCCSc1ccc(O)cc1` [Example 11, 4-[(4-Hydroxyphenyl)thio]-N-methyl-N-(2-morpholin-4-ylbenzyl)butanamide], for which the concentration giving a half-maximal response (EC50) (in experiment [1]; in the experiment with NL4-3 strain of HIV-1 (setting [2])) was below 5 µM in each case.

For `COc1ccc(F)cc1N(C)C(=O)CCCSc1ccc(F)cc1` [Example 102, N-(5-fluoro-2-methoxyphenyl)-4-[(4-fluorophenyl)thio]-N-methylbutanamide], the EC50 (in experiment [1]; in the experiment with NL4-3 strain of HIV-1 (setting [2])) was below 5 µM throughout.

The values above are taken from patent publication US20120022054A1, “NOVEL SUBSTITUTED ARYL DERIVATIVES, THEIR PROCESS OF PREPARATION AND THEIR THERAPEUTICAL USES AS ANTI-HIV AGENTS” (priority 2008, published 2012).
